Assay results published in patent US8569509B2, “Thiazole-4-carboxylic acid esters and thioesters as plant protection agents” (priority 2008, dated 2013).

Test: log P determination (HPLC, calibration with unbranched alkan-2-ones)
Type: physicochemical
Details: * LC-MS determination in the acidic range at pH 2.7, mobile phases 0.1% aqueous formic acid and acetonitrile (0.1% formic acid), linear gradient 10% to 95% acetonitrile; reversed-phase C 18 HPLC
Description: The calibration is carried out using unbranched alkan-2-ones (having 3 to 16 carbon atoms) with known log P values (determination of the log P values by the retention times using linear interpolation between two successive alkanones). The lambda-maX values were determined in the maxima of the chromatographic signals using the UV spectra from 200 nm to 400 nm.
For CC(C(=O)N1CCC(c2nc(C(=O)Oc3cccc4ccccc34)cs2)CC1)n1ccc(C(F)(F)F)n1 (centres unmarked) [compound 773], the log p was 3.87*. With CC(C(=O)N1CCC(c2nc(C(=O)OC3CCCCC3)cs2)CC1)n1ccc(C(F)(F)F)n1 (centres unmarked) [compound 774] the log p was 3.88*. In the case of Cc1cc(C(F)(F)F)nn1CC(=O)N1CCC(c2nc(C(=O)OCc3ccc(Cl)c(Cl)c3)cs2)CC1 [compound 775], the log p is reported as 4.09*. In the case of Cc1cc(C(F)(F)F)nn1CC(=O)N1CCC(c2nc(C(=O)OCc3ccc(C(F)(F)F)cc3)cs2)CC1 [compound 776], the log p is reported as 3.86*. In the case of O=C(Oc1cccc2ccccc12)c1csc(C2CCN(C(=O)Cn3nc(C(F)(F)F)cc3-c3ccccc3)CC2)n1 [compound 777], the log p is reported as 4.50*. With Cc1cc(C(F)(F)F)nn1CC(=O)N1CCC(c2nc(C(=O)OC/C=C/c3ccccc3)cs2)CC1 [compound 779] the log p was 3.74*. With Cc1cc(C(F)(F)F)nn1CC(=O)N1CCC(c2nc(C(=O)OCc3cccnc3)cs2)CC1 [compound 780] the log p was 1.74*. With Cc1cc(C(F)(F)F)nn1CC(=O)N1CCC(c2nc(C(=O)Oc3ccc4cccnc4c3)cs2)CC1 [compound 781] the log p was 2.42*. With Cc1cc(C(F)(F)F)nn1CC(=O)N1CCC(c2nc(C(=O)Oc3cccc4cccnc34)cs2)CC1 [compound 782] the log p was 2.88*. With Cc1cc(C(F)(F)F)nn1CC(=O)N1CCC(c2nc(C(=O)OCc3cccc4ccccc34)cs2)CC1 [compound 783] the log p was 3.90*. In the case of Cc1cc(C(F)(F)F)nn1CC(=O)N1CCC(c2nc(C(=O)OCc3ccc4ccccc4c3)cs2)CC1 [compound 784], the log p is reported as 3.92*. With Cc1cc(C(F)(F)F)nn1CC(=O)N1CCC(c2nc(C(=O)OC(C)c3cccc4ccccc34)cs2)CC1 (centres unmarked) [compound 785] the log p was 4.16*. With Cc1cc(C(F)(F)F)nn1CC(=O)N1CCC(c2nc(C(=O)OC(C)c3ccc4ccccc4c3)cs2)CC1 (centres unmarked) [compound 786] the log p was 4.18*. With Cc1cc(C(F)(F)F)nn1CC(=O)N1CCC(c2nc(C(=O)OCC#Cc3ccccc3)cs2)CC1 [compound 787] the log p was 3.70*. For Cc1cc(C(F)(F)F)nn1CC(=O)N1CCC(c2nc(C(=O)OC3CCCCCC3)cs2)CC1 [compound 788], the log p was 4.09*. In the case of Cc1cc(C(F)(F)F)nn1CC(=O)N1CCC(c2nc(C(=O)Oc3cccc4c3CCCC4)cs2)CC1 [compound 790], the log p is reported as 4.21*. For Cc1cc(C(F)(F)F)nn1CC(=O)N1CCC(c2nc(C(=O)OC3Cc4ccccc4C3)cs2)CC1 [compound 791], the log p was 3.67*. With Cc1cc(C(F)(F)F)nn1CC(=O)N1CCC(c2nc(C(=O)Oc3cccc4c3CCCC4)cs2)CC1 [compound 792] the log p was 4.30*. In the case of Cc1cc(C(F)(F)F)nn1CC(=O)N1CCC(c2nc(C(=O)Oc3ccc4ncccc4c3)cs2)CC1 [compound 793], the log p is reported as 2.37*. In the case of Cc1cc(C(F)(F)F)nn1CC(=O)N1CCC(c2nc(C(=O)Oc3cccc4cnccc34)cs2)CC1 [compound 794], the log p is reported as 2.18*.

Same assay, conditions: pH 2.7; read-out: log P (pH 2.7)
CC(C)(C)CCOC(=O)c1csc(C2CCN(C(=O)Cn3ccc(C(F)(F)F)n3)CC2)n1 [compound 767, 3,3-Dimethylbutyl 2-(1-{[3-(trifluoromethyl)-1H-pyrazol-1-yl]acetyl}piperidin-4-yl)-1,3-thiazole-4-carboxylate] gave a chromatographic logP of 3.82. In the case of O=C(Oc1cccc2ccccc12)c1csc(C2CCN(C(=O)Cn3nc(C(F)(F)F)cc3C(F)(F)F)CC2)n1 [compound 771, 1-Naphthyl 2-(1-{[3,5-bis(trifluoromethyl)-1H-pyrazol-1-yl]acetyl}piperidin-4-yl)-1,3-thiazole-4-carboxylate], the chromatographic logP is reported as 4.35. In the case of O=C(OC1CCCCC1)c1csc(C2CCN(C(=O)Cn3nc(C(F)(F)F)cc3C(F)(F)F)CC2)n1 [compound 772, Cyclohexyl 2-(1-{[3,5-bis(trifluoromethyl)-1H-pyrazol-1-yl]acetyl}piperidin-4-yl)-1,3-thiazole-4-carboxylate], the chromatographic logP is reported as 4.39.

Same assay, conditions: reversed-phase (C18) HPLC column; * LC-MS determination in the acidic range at pH 2.7, 0.1% aqueous formic acid and acetonitrile, linear gradient 10% to 95% acetonitrile; read-out: log p
For CC(C)(C)CCOC(=O)c1csc(C2CCN(C(=O)Cn3ccc(C(F)(F)F)n3)CC2)n1 [compound 767, 3,3-Dimethylbutyl 2-(1-{[3-(trifluoromethyl)-1H-pyrazol-1-yl]acetyl}piperidin-4-yl)-1,3-thiazole-4-carboxylate], the chromatographic logP was 3.82.

Same assay, conditions: reversed-phase C18 HPLC column; * LC-MS determination in the acidic range at pH 2.7, mobile phases 0.1% aqueous formic acid and acetonitrile (0.1% formic acid), linear gradient 10% to 95% acetonitrile; reversed-phase C 18 HPLC; read-out: log p
O=C(Oc1cccc2ccccc12)c1csc(C2CCN(C(=O)Cn3nc(C(F)(F)F)cc3C(F)(F)F)CC2)n1 [compound 771, 1-Naphthyl 2-(1-{[3,5-bis(trifluoromethyl)-1H-pyrazol-1-yl]acetyl}piperidin-4-yl)-1,3-thiazole-4-carboxylate] gave a chromatographic logP of 4.35. With O=C(OC1CCCCC1)c1csc(C2CCN(C(=O)Cn3nc(C(F)(F)F)cc3C(F)(F)F)CC2)n1 [compound 772, Cyclohexyl 2-(1-{[3,5-bis(trifluoromethyl)-1H-pyrazol-1-yl]acetyl}piperidin-4-yl)-1,3-thiazole-4-carboxylate] the chromatographic logP was 4.39.
